The values below come from US20250236611A1, “PYRAZOLE COMPOUNDS AND USES THEREOF” (ALCON INC., priority 2021, published 2025).

The structures appear in SMILES notation.

What all share (assay type): biochemical
Holding throughout (conditions): 10 nM JAK enzyme, 800 nM Abl peptide, room temperature 75 min

The target of one experiment is JAK2 (Homo sapiens, UniProt O60674). The experiment is described as follows: JAK assay (KINASE-GLO luminescent kinase assay), JAK2. On the procedure: (§1) All compounds were initially prepared as 10 mM stocks in anhydrous dimethylsulfoxide (DMSO). A 20 μL aliquot of the 10 mM solutions was transferred to individual wells in column 1 of a 96-well polypropylene microtiter plate (Corning #3363) and diluted with DMSO to give a final compound concentration of 4 mM. Test compounds were then serially diluted 1:5 in DMSO for an 11-point concentration response and further diluted in the assay buffer bringing all compound concentrations to a final range of 100 μM to 10 pM in 2.5% DMSO. The assay was performed in white 96-well, flat-bottom, half-area, non-binding assay plate (Corning #3642) in assay buffer consisting of 20 mM HEPES (pH 7.5), 10 mM MgCl2*6H2O, 100 μM sodium orthovanadate, 0.05% CHAPS and 0.1% bovine serum albumin. A 10 μL aliquot of compound from each well of the intermediate dilution plate and 20 μL of a 2×JAK substrate/enzyme solution containing acceptor substrate (800 nM Abl peptide), JAK enzyme (10 nM JAK1, JAK2, JAK3, or TYK2), and 1,4-Dithiothreitol (DTT, 2 μM) were added to all wells. The reaction was initiated by the addition of 10 μL of 4× stock solution ATP (2 μM). Reactions were thoroughly mixed manually, covered and allowed to incubate at room temperature for 75 min. Protein kinase activity was quantitated using Promega's KINASE-GLO™ luminescent Kinase Assay Kit according to the manufacturer's directions. ATP concentrations remaining in Test wells following the termination of the enzymatic reaction were compared against control wells containing equivalent amounts of DMSO containing no inhibitor (CTRL). […] Percent of Control (POC) values were determined for each concentration of compound tested according to the equation:
(§2) [formula] • IC50 values were calculated using the following 4-parameter logistic curve-fitting algorithm:
(§3) [formula] • IC50 values were converted to Ki values using the Cheng-Prusoff Equation: […]
In general terms: In Kinase-Glo more light means more ATP remaining.

The target in the next experiment is T1, JAK3 (Homo sapiens, UniProt P52333).
T1 sequence (P52333 1-1124): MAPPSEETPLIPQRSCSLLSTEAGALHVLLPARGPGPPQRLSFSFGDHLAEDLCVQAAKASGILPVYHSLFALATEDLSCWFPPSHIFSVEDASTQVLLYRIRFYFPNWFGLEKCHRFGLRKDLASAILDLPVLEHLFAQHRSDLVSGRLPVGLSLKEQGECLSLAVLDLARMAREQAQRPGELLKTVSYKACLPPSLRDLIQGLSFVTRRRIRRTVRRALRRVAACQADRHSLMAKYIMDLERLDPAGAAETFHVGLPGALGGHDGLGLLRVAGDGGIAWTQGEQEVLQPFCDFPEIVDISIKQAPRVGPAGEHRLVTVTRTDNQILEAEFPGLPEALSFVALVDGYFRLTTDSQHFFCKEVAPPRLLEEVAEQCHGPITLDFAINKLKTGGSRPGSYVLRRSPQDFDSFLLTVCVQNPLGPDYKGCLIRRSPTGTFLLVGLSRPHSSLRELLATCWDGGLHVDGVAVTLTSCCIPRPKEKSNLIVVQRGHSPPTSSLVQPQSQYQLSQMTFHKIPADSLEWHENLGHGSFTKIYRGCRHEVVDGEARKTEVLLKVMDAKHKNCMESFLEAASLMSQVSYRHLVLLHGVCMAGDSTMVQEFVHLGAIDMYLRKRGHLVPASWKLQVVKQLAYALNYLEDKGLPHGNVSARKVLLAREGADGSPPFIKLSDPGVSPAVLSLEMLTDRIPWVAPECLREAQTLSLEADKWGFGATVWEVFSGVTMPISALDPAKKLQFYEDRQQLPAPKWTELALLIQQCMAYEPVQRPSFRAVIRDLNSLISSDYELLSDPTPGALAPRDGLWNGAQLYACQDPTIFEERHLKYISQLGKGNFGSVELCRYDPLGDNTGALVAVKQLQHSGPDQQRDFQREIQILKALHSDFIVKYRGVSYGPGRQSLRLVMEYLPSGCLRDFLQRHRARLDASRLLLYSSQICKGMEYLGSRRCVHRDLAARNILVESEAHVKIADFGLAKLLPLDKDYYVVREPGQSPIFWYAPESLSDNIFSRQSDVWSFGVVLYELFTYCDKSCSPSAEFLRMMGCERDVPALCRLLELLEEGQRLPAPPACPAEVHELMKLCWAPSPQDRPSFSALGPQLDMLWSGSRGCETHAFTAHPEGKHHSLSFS
Nature of the experiment: JAK assay (KINASE-GLO luminescent kinase assay), JAK3. On the procedure:
as §1, §2, §3

In another experiment the target is JAK1 (Homo sapiens, UniProt P23458). The experiment is described as follows: JAK assay (KINASE-GLO luminescent kinase assay), JAK1. On the procedure:
as §1, §2, §3

The next experiment concerns the target TYK2 (Homo sapiens, UniProt P29597). The experiment is described as follows: JAK assay (KINASE-GLO luminescent kinase assay), TYK2. On the procedure: as §1, with “A 20 μL aliquot of the 10 mM solutions was transferred to individual wells in column 1 of a 96-well polypropylene microtiter plate (Corning #3363) and diluted with DMSO to give a final compound concentration of 4 mM.” left out
as §2, §3

JAK2, sequence (O60674 whole entry): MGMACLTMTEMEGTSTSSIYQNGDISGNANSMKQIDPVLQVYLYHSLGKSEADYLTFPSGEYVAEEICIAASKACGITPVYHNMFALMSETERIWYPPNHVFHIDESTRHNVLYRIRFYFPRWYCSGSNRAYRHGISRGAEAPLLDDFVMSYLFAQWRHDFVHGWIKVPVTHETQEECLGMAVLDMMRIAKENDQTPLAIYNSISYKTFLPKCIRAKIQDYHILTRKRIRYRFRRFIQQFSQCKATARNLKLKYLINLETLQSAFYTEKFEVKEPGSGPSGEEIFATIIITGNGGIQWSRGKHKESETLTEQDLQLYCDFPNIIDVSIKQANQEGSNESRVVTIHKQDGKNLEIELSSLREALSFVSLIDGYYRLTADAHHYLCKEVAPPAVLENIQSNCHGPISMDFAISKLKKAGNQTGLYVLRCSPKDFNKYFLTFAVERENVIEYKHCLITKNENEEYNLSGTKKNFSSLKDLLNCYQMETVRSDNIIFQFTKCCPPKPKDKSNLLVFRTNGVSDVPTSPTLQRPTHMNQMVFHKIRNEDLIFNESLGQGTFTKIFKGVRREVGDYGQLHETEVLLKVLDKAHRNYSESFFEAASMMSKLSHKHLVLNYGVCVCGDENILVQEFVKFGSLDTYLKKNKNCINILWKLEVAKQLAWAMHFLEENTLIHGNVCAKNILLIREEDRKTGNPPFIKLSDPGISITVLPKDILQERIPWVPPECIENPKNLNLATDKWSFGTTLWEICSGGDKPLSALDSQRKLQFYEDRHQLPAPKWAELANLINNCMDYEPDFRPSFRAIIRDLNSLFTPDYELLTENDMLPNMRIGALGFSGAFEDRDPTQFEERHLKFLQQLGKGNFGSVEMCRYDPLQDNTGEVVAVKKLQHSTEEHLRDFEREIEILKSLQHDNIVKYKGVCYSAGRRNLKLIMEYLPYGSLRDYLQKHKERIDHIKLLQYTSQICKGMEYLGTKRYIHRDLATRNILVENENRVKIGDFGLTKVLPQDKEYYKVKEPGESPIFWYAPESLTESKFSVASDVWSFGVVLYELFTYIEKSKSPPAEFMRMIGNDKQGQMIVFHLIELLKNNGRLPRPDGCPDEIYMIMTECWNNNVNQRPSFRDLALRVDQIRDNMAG
JAK1, sequence (P23458 whole entry): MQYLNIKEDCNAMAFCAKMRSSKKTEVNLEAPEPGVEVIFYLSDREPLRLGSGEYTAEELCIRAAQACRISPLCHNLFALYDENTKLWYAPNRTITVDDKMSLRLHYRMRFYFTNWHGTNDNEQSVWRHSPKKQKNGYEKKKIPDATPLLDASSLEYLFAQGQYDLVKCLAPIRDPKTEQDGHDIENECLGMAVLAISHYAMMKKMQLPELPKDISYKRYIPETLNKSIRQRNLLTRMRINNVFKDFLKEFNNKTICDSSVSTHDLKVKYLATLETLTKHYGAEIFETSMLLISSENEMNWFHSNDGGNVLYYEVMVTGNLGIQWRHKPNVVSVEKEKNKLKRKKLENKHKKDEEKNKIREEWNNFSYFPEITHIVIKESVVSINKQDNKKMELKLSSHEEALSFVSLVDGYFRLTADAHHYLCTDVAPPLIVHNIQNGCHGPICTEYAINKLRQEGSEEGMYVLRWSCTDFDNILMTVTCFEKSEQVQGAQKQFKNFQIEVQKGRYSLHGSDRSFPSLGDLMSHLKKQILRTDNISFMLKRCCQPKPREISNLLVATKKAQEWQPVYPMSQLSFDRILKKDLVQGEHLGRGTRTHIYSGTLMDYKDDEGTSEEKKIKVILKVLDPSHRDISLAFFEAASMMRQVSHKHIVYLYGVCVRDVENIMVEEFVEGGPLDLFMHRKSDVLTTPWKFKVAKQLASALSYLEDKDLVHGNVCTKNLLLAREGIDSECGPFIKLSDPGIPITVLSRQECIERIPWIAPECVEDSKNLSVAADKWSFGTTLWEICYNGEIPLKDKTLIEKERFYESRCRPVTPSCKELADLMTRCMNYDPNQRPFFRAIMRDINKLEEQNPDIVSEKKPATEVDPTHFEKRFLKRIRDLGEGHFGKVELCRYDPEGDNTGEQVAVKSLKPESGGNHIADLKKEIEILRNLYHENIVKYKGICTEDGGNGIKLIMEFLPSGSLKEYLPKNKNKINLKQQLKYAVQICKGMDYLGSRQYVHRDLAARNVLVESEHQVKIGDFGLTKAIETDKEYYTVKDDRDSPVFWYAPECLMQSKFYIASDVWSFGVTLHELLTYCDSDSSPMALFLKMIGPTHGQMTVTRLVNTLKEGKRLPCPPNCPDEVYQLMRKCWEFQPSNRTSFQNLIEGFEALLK
TYK2, sequence (P29597 whole entry): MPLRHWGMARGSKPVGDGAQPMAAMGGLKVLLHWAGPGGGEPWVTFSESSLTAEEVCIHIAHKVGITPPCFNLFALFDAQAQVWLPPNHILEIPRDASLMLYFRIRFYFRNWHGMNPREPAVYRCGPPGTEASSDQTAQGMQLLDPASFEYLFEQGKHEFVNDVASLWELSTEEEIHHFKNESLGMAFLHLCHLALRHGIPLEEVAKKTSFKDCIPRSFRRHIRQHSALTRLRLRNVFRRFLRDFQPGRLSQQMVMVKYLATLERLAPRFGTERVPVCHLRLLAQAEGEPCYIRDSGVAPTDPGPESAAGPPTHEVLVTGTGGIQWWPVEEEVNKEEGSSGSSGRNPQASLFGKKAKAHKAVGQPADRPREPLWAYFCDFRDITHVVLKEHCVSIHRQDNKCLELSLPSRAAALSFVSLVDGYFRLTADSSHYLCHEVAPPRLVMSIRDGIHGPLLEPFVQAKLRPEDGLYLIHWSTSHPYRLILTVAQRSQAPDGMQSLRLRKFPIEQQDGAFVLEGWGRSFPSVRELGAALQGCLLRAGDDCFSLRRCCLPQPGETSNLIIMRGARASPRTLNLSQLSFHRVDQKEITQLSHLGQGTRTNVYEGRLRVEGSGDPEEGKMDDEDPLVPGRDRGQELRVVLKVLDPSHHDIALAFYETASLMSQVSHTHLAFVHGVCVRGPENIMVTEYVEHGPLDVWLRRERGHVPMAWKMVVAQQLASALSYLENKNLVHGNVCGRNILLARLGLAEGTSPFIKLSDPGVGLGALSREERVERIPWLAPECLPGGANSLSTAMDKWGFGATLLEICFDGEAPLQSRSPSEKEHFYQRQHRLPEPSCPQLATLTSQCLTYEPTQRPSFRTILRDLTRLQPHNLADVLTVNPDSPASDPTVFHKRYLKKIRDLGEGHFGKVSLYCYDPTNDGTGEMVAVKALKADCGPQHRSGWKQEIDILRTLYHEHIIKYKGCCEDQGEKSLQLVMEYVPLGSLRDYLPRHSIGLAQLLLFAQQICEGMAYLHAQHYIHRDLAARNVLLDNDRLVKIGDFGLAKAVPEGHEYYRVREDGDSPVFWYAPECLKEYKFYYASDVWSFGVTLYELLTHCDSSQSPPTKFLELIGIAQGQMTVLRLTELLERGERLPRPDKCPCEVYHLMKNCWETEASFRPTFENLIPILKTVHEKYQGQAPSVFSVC

By IC50 is commonly meant the midpoint of a concentration-inhibition curve. On to `Cc1cc(Nc2ncc(C)c(-c3cnn(CC4(CF)CCC4)c3)n2)sn1` [CC1═NSC(═C1)NC2═NC═C(C)C], for which the IC50 against JAK2, against JAK3, against JAK1 and on TYK2 was less than 10 nM each time.

For `Cc1cnc(Nc2ccc3c(c2)CN(C)C3)nc1-c1cnn(CC2(CF)CC2)c1` [CN1CC2═CC═C(NC3═NC(═C], the half-maximal inhibitory concentration (IC50) at JAK2, against JAK3, at JAK1 and against TYK2 was less than 10 nM each time.

Take `N#CCCn1cc(-c2ccnc(NC(=O)C3CC3)n2)cn1` [O═C(NC1═NC(═CC═N1)C2═C[N]]: the IC50 was less than 100000 nM against JAK2, more than 50000 nM against JAK3, less than 100000 nM against JAK1 and less than 100000 nM on TYK2.

Turning to `CC(C)(C)OC(=O)N1CC(CO)(Cn2cc(-c3nc(Nc4ccc(C(N)=O)cc4)ncc3Cl)cn2)C1` [CC(C)(C)OC(═O)N1CC(CO)(C1)C[N]2C═C], the IC50 against JAK2 was less than 100 nM; against JAK3, less than 100 nM; on JAK1 it was less than 1000 nM; against TYK2, less than 1000 nM.

For the compound `Cc1cnc(Nc2ccc(N3CCN(C(=O)OC(C)(C)C)CC3)cc2)nc1-c1cnn(CC2(CF)CC2)c1` [CC1═C(N═C(NC2═CC═C(C═C2)N3CCN], the concentration for half-maximal inhibition (IC50) was less than 10 nM against JAK2, less than 100 nM against JAK3, less than 1000 nM on JAK1 and less than 100 nM against TYK2.

As to `N#CC1(Cn2cc(-c3nc(Nc4cnc5ccnn5c4)ncc3Cl)cn2)CCC1` [ClC1═C(N═C], the concentration for half-maximal inhibition (IC50) was less than 100 nM against JAK2, less than 1000 nM against JAK3, less than 100000 nM against JAK1 and less than 1000 nM at TYK2.

Consider `Cc1cnc(Nc2cccc(CN3CCN(C)CC3)c2)nc1-c1cnn(CC2(CF)CC2)c1` [CN1CCN(CC1)CC2═CC═CC(═C2)NC3═NC(═C], for which the IC50 is less than 10 nM on JAK2, less than 100 nM against JAK3, less than 1000 nM against JAK1 and less than 1000 nM against TYK2.

With `Cc1cnc(Nc2ccc(OCCN(C)C)cc2)nc1-c1cnn(CC2(CF)CC2)c1` [(C)CCOC1═CC═C(NC2═NC], the half-maximal inhibitory concentration (IC50) on JAK2 was less than 10 nM; at JAK3, less than 100 nM; against JAK1, less than 100 nM; on TYK2, less than 100 nM.

On to `Cc1cnc(Nc2ccc(CNC(=O)[C@H](C)NC(=O)OC(C)(C)C)cc2)nc1-c1cnn(CC2(CF)CC2)c1` [C[C@H](NC(═O)OC(C)(C)C)C], for which the IC50 at JAK2 was less than 10 nM; against JAK3, less than 100 nM; against JAK1 it was less than 100 nM; against TYK2 it was less than 100 nM.

Regarding `COc1cnc(Nc2ccc(C3(O)COC3)cc2)nc1-c1cnn(CC2(CF)CC2)c1` [COC1═C(N═C(NC2═CC═C(C═C2)C3], the concentration for half-maximal inhibition (IC50) was less than 10 nM at JAK2, less than 100 nM on JAK3, less than 1000 nM on JAK1 and less than 100 nM at TYK2.

For the compound `Cc1cnc(Nc2cccc(C(=O)N(C)C)c2)nc1-c1cnn(CC2(CF)CC2)c1` [CN(C)C(═O)C1═CC(═CC═C1)NC2═NC], the half-maximal inhibitory concentration (IC50) was less than 10 nM against JAK2, less than 100 nM against JAK3, less than 100 nM against JAK1 and less than 100 nM against TYK2.

In the case of `Cc1cnc(Nc2cccc(C(N)=O)c2)nc1-c1cnn(CC2(CF)CC2)c1` [CC1═C(N═C(NC2═CC(═CC═C2)C], the concentration for half-maximal inhibition (IC50) is less than 10 nM against JAK2, less than 100 nM against JAK3, less than 100 nM at JAK1 and less than 10 nM against TYK2.

`Cc1cnc(Nc2ccc(C(=O)N(C)C)cc2)nc1-c1cnn(CC2(CF)CC2)c1` [CN(C)C(═O)C1═CC═C(NC2═NC(═C]: the IC50 at JAK2 is less than 10 nM; against JAK3, less than 100 nM; against JAK1 it was less than 100 nM; against TYK2 it was less than 100 nM.

`CC(=O)OCCc1ccc(Nc2ncc(Cl)c(-c3cnn(CCC#N)c3)n2)cc1` [CC(═O)OCCC1═CC═C(NC2═NC(═C]: the IC50 against JAK2 is less than 10 nM; against JAK3, less than 100 nM; against JAK1, less than 100 nM; on TYK2 it was less than 10 nM.

`Cc1cc(Nc2ncc(Cl)c(-c3cnn(CCC#N)c3)n2)no1` [CC1═CC(═NO1)NC2═NC(═C]: the concentration for half-maximal inhibition (IC50) on JAK2 is less than 100 nM; against JAK3 it was less than 1000 nM; against JAK1, less than 1000 nM; against TYK2, less than 100 nM.

Regarding `Cc1cnc(Nc2ccc(CCN(C)C)cc2)nc1-c1cnn(CC2(CF)CC2)c1` [CN(C)CCC1═CC═C(NC2═NC(═C], the concentration for half-maximal inhibition (IC50) at JAK2 was less than 10 nM; against JAK3 it was less than 100 nM; at JAK1, less than 1000 nM; against TYK2 it was less than 100 nM.

Consider `COC(=O)c1ccc(Nc2ncc(Cl)c(-c3cnn(CC4(C#N)CC4)c3)n2)cn1` [COC(═O)C1═NC═C(NC2═NC(═C], for which the IC50 on JAK2 was less than 10 nM; against JAK3, less than 100 nM; against JAK1 it was less than 1000 nM; at TYK2, less than 100 nM.

As for `Cc1cnc(Nc2cc(COC(=O)CCN3CCOCC3)ns2)nc1-c1cnn(CC2(CF)CC2)c1` [CC1═C(N═C(NC2═CC(═NS2)COC], the 50% inhibitory concentration (IC50) is less than 10 nM on JAK2, less than 10 nM at JAK3, less than 100 nM on JAK1 and less than 10 nM at TYK2.

`Cc1cnc(Nc2ccc3c(c2)OCCN3C)nc1-c1cnn(CC2(CF)CC2)c1` [CN1CCOC2═CC(═CC═C12)NC3═NC(═C]: the concentration for half-maximal inhibition (IC50) at JAK2 was less than 10 nM; at JAK3, less than 100 nM; on JAK1 it was less than 100 nM; on TYK2, less than 100 nM.

In the case of `N#CCCn1cc(-c2nc(Nc3ccc(N4CCOCC4)c(F)c3)ncc2Cl)cn1` [FC1═CC(═CC═C1N2CCOCC2)NC3═NC(═C], the 50% inhibitory concentration (IC50) against JAK2, against JAK3, at JAK1 and at TYK2 was less than 10 nM each time.

With `Clc1cnc(Nc2cccc(CN3CCC3)c2)nc1` [ClC1═C(N═C(NC2═CC(═CC═C2)CN3CCC3)N═C1)], the half-inhibitory concentration (IC50) is less than 10 nM at JAK2, less than 10 nM at JAK3, less than 100 nM against JAK1 and less than 10 nM on TYK2.

As for `Cn1ccc(Nc2ncc(Cl)c(-c3cnn(CC4(C#N)COC4)c3)n2)cc1=O` [CN1/C═C\C(═C/C1═O)NC2═NC(═C], the IC50 at JAK2 is less than 10 nM; against JAK3, less than 1000 nM; against JAK1, less than 1000 nM; against TYK2, less than 1000 nM.
